Test results taken from patent US6316190A (The United States of America as represented by the …).

Tests used:
[1] = tested on: HIV-1; conditions: cited from earlier work
[2] = tested on: synthetic peptide with a HIV-1 CCHC zinc finger; conditions: cited from earlier work
[3] = tested on: recombinant HIV-1 NC protein; assay: Surface plasmon resonance (BIAcore) binding of NC to immobilized biotinylated oligonucleotides; conditions: for NC binding to oligonucleotide (level and stability during washout): oligonucleotide on chip, 0.15M NaCl; for affinity for HIV-1 NC protein: oligonucleotides including the subsequence
Experimental: In a preferred embodiment, the assay format is surface plasmon resonance (SPR). The Kd and kinetics of the trial compound-protein interaction are determined in a BIAcore, a biosensor based on surface plasmon resonance. For this technique, protein or trial compound is coupled to a derivatized sensor chip capable of detecting changes in mass. When trial compound or protein is passed over the sensor chip, it binds to the trial compound or protein coupled to the chip, resulting in an increase in mass which is quantifiable. Measurement of the rate of association as a function of trial compound or protein concentration can be used to calculate the association rate constant (kon). After the association phase, buffer is passed over the chip and the rate of dissociation (koff) is determined. Kon is typically measured in the range 1.0×10^2 to 5.0×10^6 and koff in the range 1.0×10^-1 to 1.0×10^-6. The equilibrium constant Kd is often calculated as koff/kon and thus is typically measured in the range 10^-5 to 10^-12. Affinities measured in this manner correlate well with affinities measured in solution by fluorescence quench titration. See, Fisher and Fivash (1994) Curr. Opin. Biotechnol. 5:389-395; Fisher et al. (1994) Methods 6:389-395; Johnsson et al., (1991) Anal. Biochem., 198:268-277; Karlsson et al., (1991) J. Immunol. Methods., 145:229-240; and Johnsson et al., (1991) Anal. Biochem. 198:268-277.
NC has traditionally been described as a single-stranded nucleic acid-binding protein. To determine whether this conclusion is accurate under SPR conditions, we initially measured binding of recombinant HIV-1 NC to a single-stranded 28-base oligodeoxynucleotide. The sequence of this oligonucleotide contains 20 bases from the 3' end of HIV-1 proviral DNA (i.e., the 3' end of U5). Surface plasmon resonance (SPR) analysis was performed with biotinylated DNA immobilized at its 3' end.
This possibility was analyzed systematically in the following experiment. Four SPR chips were made containing TGTG (SEQ ID NO:3) at different densities. For each chip, the amount of streptavidin (which holds the biotinylated oligonucleotide on the chip) was measured by SPR analysis before the addition of TGTG (SEQ ID NO:3). The amount of TGTG (SEQ ID NO:3) added to each chip was then quantitated by SPR. Thus, for each chip the ratio of TGTG (SEQ ID NO:3) to streptavidin was empirically determined. Since a streptavidin molecule has four binding sites for biotinylated ligands, the number of streptavidin molecules occupied by 0, 1, 2, 3, or 4 oligonucleotides could be calculated from this ratio, using binomial expansion. Finally, the ability of each chip to bind NC with high affinity was determined by SPR.
Another important aspect of the experiments described here is that the analyses were performed in 0.15M NaCl. The sequence-independent electrostatic interaction between the positively charged NC protein and nucleic acids is obviously much lower at this moderate ionic strength than in more dilute buffers, so that the differences in affinity for different oligonucleotides are more apparent. […] The additional affinity of NC for a preferred sequence was shown by this analysis to be largely hydrophobic.

[4] = tested on: HIV-1 NC protein; assay: Tryptophan fluorescence titration of NC with oligonucleotide, then NaCl dissociation; assay type: binding; conditions: for apparent affinity of NC: fluorescence; for hydrophobic component, apparent affinity constant at 1M NaCl (K°) / K° relative to expected value (weighted average of corresponding homopolymers): 1M NaCl
[5] = tested on: 2.2 finger swap mutant protein; assay: Fluorescence binding of 2.2 finger swap mutant protein; parameters: species or system HIV-1; conditions: versus wild-type protein
[6] = tested on: "finger swap" mutants of NC (1.1, 2.2, 2.1); assay: SPR binding of "finger swap" mutant NC proteins to the 5' site; parameters: species or system HIV-1
[7] = biological target: T1, HIV-1 nucleocapsid protein (NC), wild type (Human immunodeficiency virus 1, UniProt P12493 P12493:378-432); assay: SPR; 0.15 M NaCl; most stable of three subsites; relatively high affinity also by fluorescence; conditions: label: biotin
[8] = biological target: T1, HIV-1 nucleocapsid protein (NC), wild …; assay: SPR; two NC per oligo; conditions: label: biotin
[9] = biological target: T1, HIV-1 nucleocapsid protein (NC), wild …; assay: SPR; higher level and slower washout than site I DNA
[10] = biological target: T1, HIV-1 nucleocapsid protein (NC), wild …; assay: SPR; conditions: label: 3'-biotin
[11] = biological target: T1, HIV-1 nucleocapsid protein (NC), wild …; assay: SPR; TGTG replaced by AAAA; no high-affinity binding; conditions: label: biotin
[12] = biological target: T1, HIV-1 nucleocapsid protein (NC), wild …; assay: SPR; 0.15 M NaCl; tight binding mode (slow washout); conditions: label: biotin (SPR)
[13] = biological target: T1, HIV-1 nucleocapsid protein (NC), wild …; assay: SPR; 0.15 M NaCl; second independent mode (fast-released fraction); conditions: label: biotin (SPR)
[14] = biological target: T1, HIV-1 nucleocapsid protein (NC), wild …; assay: SPR; four NC per oligo; conditions: label: biotin
[15] = biological target: T1, HIV-1 nucleocapsid protein (NC), wild …; assay: SPR; negligible binding; conditions: label: biotin
[16] = biological target: T1, HIV-1 nucleocapsid protein (NC), wild …; assay: SPR; TGTG sufficient for high-affinity binding in A context; conditions: label: biotin
[17] = quantitative analysis of SPR data

## NC(=O)c1cccc(N=O)c1 [NOBA, 3-nitroso benzamide]
[1]
  effect on virus: viral inactivation
[2]
  effect on zinc of zinc finger peptide: loss of zinc

## (TG)5
[3]; SPR
  number of NC molecules bound per oligonucleotide: two

## (TG)10
[3]; SPR
  number of NC molecules bound per oligonucleotide: four

## (dT)9
[4]
  hydrophobic component, apparent affinity constant at 1M NaCl (K°): 5×10^1

## AAAATCTCTA [site II]
[3]; SPR
  NC binding to oligonucleotide (level and stability during washout): negligible binding

## AAAATGTGAA
[3]; SPR
  NC binding to oligonucleotide (level and stability during washout): binding

## GACTTGTGG [Site I]
[5]
  apparent affinity of 2.2 mutant: lower apparent affinity than that of wild-type protein
[4]
  apparent affinity of NC: relatively high affinity
[6]
  binding of mutant proteins: some binding
[6]; versus wild-type protein
  washout of mutant proteins: washed out considerably faster than the wild-type protein
[3]; SPR
  dependence of binding on oligonucleotide density: essentially independent
  NC binding to oligonucleotide (level and stability during washout): most stable binding

## GACTTGTGGA
[3]
  affinity for HIV-1 NC protein: nanomolar range

## GACUUGUGG (chemistry not given here)
[3]; SPR
  NC binding to oligonucleotide (level and stability during washout): at a higher level and washes out more slowly than the binding to the DNA
[3]
  affinity for HIV-1 NC protein: nanomolar range

## GCAGTGCAT [site III]
[3]; SPR
  NC binding to oligonucleotide (level and stability during washout): significant binding, but at a lower level and a more rapid loss during the washout than was observed with site I

## GTGTG
[3]; SPR
  number of NC molecules bound per oligonucleotide: single
  NC binding to oligonucleotide (level and stability during washout): high-affinity binding sites

## TGTG (DNA, backbone not given here)
[3]; highest oligonucleotide density on chip (FIG. 6D)
  high-affinity binding of NC: high-affinity binding is achieved
[3]; oligonucleotide at low density (FIG. 6A)
  initial binding of NC: substantial degree of initial binding

## TGTGT
[3]; SPR
  number of NC molecules bound per oligonucleotide: single
  NC binding to oligonucleotide (level and stability during washout): high-affinity binding sites

## TGTGTG
[3]
  affinity for HIV-1 NC protein: nanomolar range

## TGTGTGTG [d(TG)4]
[4]
  K° relative to expected value (weighted average of corresponding homopolymers): 145 times
  hydrophobic component, apparent affinity constant at 1M NaCl (K°): 2.3×10^4
  apparent affinity of NC: highest affinity
[4]; d(TG)4 versus d(IT)4, inferred from difference in affinity
  difference in binding energy: ~ 1 kcal/mole
[3]; SPR
  dependence of binding on oligonucleotide density: essentially independent
  number of NC molecules bound per oligonucleotide: one
[3]; [17]
  Ka, binding system released more rapidly during washout: 1×10^7
  Ka, binding system responsible for slow washout: 2e+09 M⁻¹

## d(G)9
[4]
  apparent affinity of NC: higher than that for the other hompolymeric oligodeoxynucleotides
[3]; SPR
  extent of binding and retention of NC during washout relative to site 1: far lower than seen with site 1 sequences
  NC binding to oligonucleotide (level and stability during washout): clear preference

## d(GA)4
[4]
  K° relative to expected value (weighted average of corresponding homopolymers): coincided with the value that would be predicted

## d(IT)4
[4]
  K° relative to expected value (weighted average of corresponding homopolymers): 10 times

## d(T)10
[3]; SPR
  NC binding to oligonucleotide (level and stability during washout): detectable binding

B1: site I (ssDNA)
DNA: GACTTGTGG
[7]
  binding result: binds

B2: (TG)5 (ssDNA)
DNA: TGTGTGTGTG
[8]
  binding result: binds

B3: site I RNA (ssRNA)
RNA: GACUUGUGG
[9]
  binding result: binds

B4: 28-mer ss oligodeoxynucleotide (HIV-1 U5 3' end) (ssDNA)
DNA: GACTTGTGGAAAATCTCTAGCAGTGCAT
[10]
  binding result: binds

B5: GACTAAAAGA (ssDNA)
DNA: GACTAAAAGA
[11]
  binding result: no binding

B6: d(TG)4 (ssDNA)
DNA: TGTGTGTG
[12]
  Ka: 2e+09 M⁻¹
[13]
  Ka: 1e+07 M⁻¹

B7: (TG)10 (ssDNA)
DNA: TGTGTGTGTGTGTGTGTGTG
[14]
  binding result: binds

B8: site II (ssDNA)
DNA: AAAATCTCTA
[15]
  binding result: no binding

B9: AAAATGTGAA (ssDNA)
DNA: AAAATGTGAA
[16]
  binding result: binds
